Assay results taken from patent US9963442B2, “Pyridones as herbicides” (E I DU PONT DE NEMOURS AND COMPANY, priority 2014, dated 2018).

Legend:
Assay type in all cases: in vivo
[1] = tested on: giant foxtail (Setaria faberii); test: Test A preemergence, directed soil spray; settings: approx. 10 days
From the text: (§1) Seeds of plant species selected from barnyardgrass (Echinochloa crus-galli), kochia (Kochia scoparia), ragweed (common ragweed, Ambrosia elatior), Italian ryegrass (Lolium multiflorum), giant foxtail (Setaria faberii), and pigweed (Amaranthus retroflexus) were planted into a blend of loam soil and sand and treated preemergence with a directed soil spray using test chemicals formulated in a non-phytotoxic solvent mixture which included a surfactant. At the same time, plants selected from these weed species and also wheat (Triticum aestivum), corn (Zea mays), blackgrass (Alopecurus myosuroides), and galium (catchweed bedstraw, Galium aparine) were planted in pots containing the same blend of loam soil and sand and treated with postemergence applications of test chemicals formulated in the same manner. Plants ranged in height from 2 to 10 cm and were in the one- to two-leaf stage for the postemergence treatment. Treated plants and untreated controls were maintained in a greenhouse for approximately 10 days, after which time all treated plants were compared to untreated controls and visually evaluated for injury. Plant response ratings, summarized in Table A, are based on a 0 to 100 scale where 0 is no effect and 100 is complete control. A dash (-) response means no test result.

[2] = tested on: barnyardgrass (Echinochloa crus-galli); test: Test A preemergence, directed soil spray; settings: approx. 10 days
From the text: as §1

kochia (Kochia scoparia) [3] = test: Test A preemergence, directed soil spray; settings: approx. 10 days
From the text: as §1

[4] = tested on: pigweed (Amaranthus retroflexus); test: Test A preemergence, directed soil spray; settings: approx. 10 days
From the text: as §1

[5] = tested on: ragweed (common ragweed, Ambrosia elatior); test: Test A preemergence, directed soil spray; settings: approx. 10 days
From the text: as §1

[6] = tested on: Italian ryegrass (Lolium multiflorum); test: Test A preemergence, directed soil spray; settings: approx. 10 days
From the text: as §1

[7] = tested on: giant foxtail (Setaria faberii); test: Test A postemergence application; settings: approx. 10 days
From the text: as §1

[8] = tested on: barnyardgrass (Echinochloa crus-galli); test: Test A postemergence application; settings: approx. 10 days
From the text: as §1

[9] = tested on: wheat (Triticum aestivum); test: Test A postemergence application; settings: approx. 10 days
From the text: as §1

kochia (Kochia scoparia) [10] = test: Test A postemergence application; settings: approx. 10 days
From the text: as §1

[11] = tested on: pigweed (Amaranthus retroflexus); test: Test A postemergence application; settings: approx. 10 days
From the text: as §1

[12] = tested on: galium (catchweed bedstraw, Galium aparine); test: Test A postemergence application; settings: approx. 10 days
From the text: as §1

[13] = tested on: ragweed (common ragweed, Ambrosia elatior); test: Test A postemergence application; settings: approx. 10 days
From the text: as §1

[14] = tested on: Italian ryegrass (Lolium multiflorum); test: Test A postemergence application; settings: approx. 10 days
From the text: as §1

corn (Zea mays) = test: Test A postemergence application; settings: approx. 10 days
From the text: as §1

[15] = tested on: blackgrass (Alopecurus myosuroides); test: Test A postemergence application; settings: approx. 10 days
From the text: as §1

rice (Oryza sativa) = test: Test B flooded paddy test; set-up: key: 0 = no effect, 100 = complete control; settings: Flood, 250 g ai/ha applied to paddy water at 2-leaf stage; visually evaluated after 13 to 15 days; scale 0 (no effect) to 100 (complete control)
Method: (§2) Plant species in the flooded paddy test selected from rice (Oryza sativa), sedge, umbrella (small-flower umbrella sedge, Cyperus difformis), ducksalad (Heteranthera limosa), and barnyardgrass (Echinochloa crus-galli) were grown to the 2-leaf stage for testing. At time of treatment, test pots were flooded to 3 cm above the soil surface, treated by application of test compounds directly to the paddy water, and then maintained at that water depth for the duration of the test. Treated plants and controls were maintained in a greenhouse for 13 to 15 days, after which time all species were compared to controls and visually evaluated. Plant response ratings, summarized in Table B, are based on a scale of 0 to 100 where 0 is no effect and 100 is complete control. A dash (-) response means no test result.

[16] = tested on: ducksalad (Heteranthera limosa); test: Test B flooded paddy test; set-up: key: 0 = no effect, 100 = complete control; settings: Flood, 250 g ai/ha applied to paddy water at 2-leaf stage; visually evaluated after 13 to 15 days; scale 0 (no effect) to 100 (complete control)
Method: as §2

[17] = tested on: barnyardgrass (Echinochloa crus-galli); test: Test B flooded paddy test; set-up: key: 0 = no effect, 100 = complete control; settings: Flood, 250 g ai/ha applied to paddy water at 2-leaf stage; visually evaluated after 13 to 15 days; scale 0 (no effect) to 100 (complete control)
Method: as §2

[18] = tested on: sedge, umbrella (small-flower umbrella sedge, Cyperus difformis); test: Test B flooded paddy test; set-up: key: 0 = no effect, 100 = complete control; settings: Flood, 250 g ai/ha applied to paddy water at 2-leaf stage; visually evaluated after 13 to 15 days; scale 0 (no effect) to 100 (complete control)
Method: as §2

SMILES | Plant response rating (0 to 100 scale, 0 no effect, 100 complete control), Foxtail, Giant ([1]; 31 g ai/ha) | Plant response rating (0 to 100 scale, 0 no effect, 100 complete control), Foxtail, Giant ([1]; 125 g ai/ha) | Plant response rating (0 to 100 scale, 0 no effect, 100 complete control), Barnyardgrass ([2]; 31 g ai/ha) | Plant response rating (0 to 100 scale, 0 no effect, 100 complete control), Barnyardgrass ([2]; 125 g ai/ha) | Plant response rating (0 to 100 scale, 0 no effect, 100 complete control), Kochia (kochia (Kochia scoparia) [3]; 31 g ai/ha) | Plant response rating (0 to 100 scale, 0 no effect, 100 complete control), Kochia (kochia (Kochia scoparia) [3]; 125 g ai/ha) | Plant response rating (0 to 100 scale, 0 no effect, 100 complete control), Pigweed ([4]; 31 g ai/ha) | Plant response rating (0 to 100 scale, 0 no effect, 100 complete control), Pigweed ([4]; 125 g ai/ha) | Plant response rating (0 to 100 scale, 0 no effect, 100 complete control), Ragweed ([5]; 31 g ai/ha) | Plant response rating (0 to 100 scale, 0 no effect, 100 complete control), Ragweed ([5]; 125 g ai/ha) | Plant response rating (0 to 100 scale, 0 no effect, 100 complete control), Ryegrass, Italian ([6]; 31 g ai/ha) | Plant response rating (0 to 100 scale, 0 no effect, 100 complete control), Ryegrass, Italian ([6]; 125 g ai/ha) | Plant response rating (0 to 100 scale, 0 no effect, 100 complete control), Foxtail, Giant ([7]; 31 g ai/ha) | Plant response rating (0 to 100 scale, 0 no effect, 100 complete control), Foxtail, Giant ([7]; 125 g ai/ha) | Plant response rating (0 to 100 scale, 0 no effect, 100 complete control), Barnyardgrass ([8]; 31 g ai/ha) | Plant response rating (0 to 100 scale, 0 no effect, 100 complete control), Barnyardgrass ([8]; 125 g ai/ha) | Plant response rating (0 to 100 scale, 0 no effect, 100 complete control), Wheat ([9]; 31 g ai/ha) | Plant response rating (0 to 100 scale, 0 no effect, 100 complete control), Wheat ([9]; 125 g ai/ha) | Plant response rating (0 to 100 scale, 0 no effect, 100 complete control), Kochia (kochia (Kochia scoparia) [10]; 31 g ai/ha) | Plant response rating (0 to 100 scale, 0 no effect, 100 complete control), Kochia (kochia (Kochia scoparia) [10]; 125 g ai/ha) | also measured
O=c1cccc(Oc2ncc(Cl)cn2)n1-c1ncc(F)cn1 [Compound 4] | 0 | 20 | 0 | 0 | 0 | 70 | 70 | 70 | 0 | 0 | 0 | 0 | 0 | 0 | 0 | 0 | 0 | 0 | 40 | 80 | Plant response rating (0 to 100 scale, 0 no effect, 100 complete control), Pigweed ([11]; 31 g ai/ha): 50; Plant response rating (0 to 100 scale, 0 no effect, 100 complete control), Pigweed ([11]; 125 g ai/ha): 70; Plant response rating (0 to 100 scale, 0 no effect, 100 complete control), Galium ([12]; 31 g ai/ha): 30; Plant response rating (0 to 100 scale, 0 no effect, 100 complete control), Galium ([12]; 125 g ai/ha): 50; Plant response rating (0 to 100 scale, 0 no effect, 100 complete control), Ragweed ([13]; 31 g ai/ha): 10; Plant response rating (0 to 100 scale, 0 no effect, 100 complete control), Ragweed ([13]; 125 g ai/ha): 20; Plant response rating (0 to 100 scale, 0 no effect, 100 complete control), Ryegrass, Italian ([14]; 31 g ai/ha): 0; Plant response rating (0 to 100 scale, 0 no effect, 100 complete control), Ryegrass, Italian ([14]; 125 g ai/ha): 0; Plant response rating (0 to 100 scale, 0 no effect, 100 complete control), Corn (corn (Zea mays); 31 g ai/ha): 0; Plant response rating (0 to 100 scale, 0 no effect, 100 complete control), Corn (corn (Zea mays); 125 g ai/ha): 10; Plant response rating (0 to 100 scale, 0 no effect, 100 complete control), Blackgrass ([15]; 31 g ai/ha): 20; Plant response rating (0 to 100 scale, 0 no effect, 100 complete control), Blackgrass ([15]; 125 g ai/ha): 20; Plant response rating, Rice (rice (Oryza sativa)): 0; Plant response rating, Ducksalad [16]: 0; Plant response rating, Barnyardgrass [17]: 0; Plant response rating, Sedge, Umbrella [18]: 0
O=c1cccc(Oc2ncc(Cl)cn2)n1-c1ncc(C(F)(F)F)cn1 [Compound 5] | 70 | 100 | 0 | 80 | 0 | 100 | 90 | 100 | 0 | 80 | 0 | 0 | 10 | 80 | 0 | 20 | 0 | 0 | 40 | 60 | Plant response rating (0 to 100 scale, 0 no effect, 100 complete control), Pigweed ([11]; 31 g ai/ha): 70; Plant response rating (0 to 100 scale, 0 no effect, 100 complete control), Pigweed ([11]; 125 g ai/ha): 90; Plant response rating (0 to 100 scale, 0 no effect, 100 complete control), Galium ([12]; 31 g ai/ha): 50; Plant response rating (0 to 100 scale, 0 no effect, 100 complete control), Galium ([12]; 125 g ai/ha): 90; Plant response rating (0 to 100 scale, 0 no effect, 100 complete control), Ragweed ([13]; 31 g ai/ha): 30; Plant response rating (0 to 100 scale, 0 no effect, 100 complete control), Ragweed ([13]; 125 g ai/ha): 80; Plant response rating (0 to 100 scale, 0 no effect, 100 complete control), Ryegrass, Italian ([14]; 31 g ai/ha): 0; Plant response rating (0 to 100 scale, 0 no effect, 100 complete control), Ryegrass, Italian ([14]; 125 g ai/ha): 30; Plant response rating (0 to 100 scale, 0 no effect, 100 complete control), Corn (corn (Zea mays); 31 g ai/ha): 0; Plant response rating (0 to 100 scale, 0 no effect, 100 complete control), Corn (corn (Zea mays); 125 g ai/ha): 10; Plant response rating (0 to 100 scale, 0 no effect, 100 complete control), Blackgrass ([15]; 31 g ai/ha): 30; Plant response rating (0 to 100 scale, 0 no effect, 100 complete control), Blackgrass ([15]; 125 g ai/ha): 50; Plant response rating, Rice (rice (Oryza sativa)): 0; Plant response rating, Ducksalad [16]: 85; Plant response rating, Barnyardgrass [17]: 0; Plant response rating, Sedge, Umbrella [18]: 75
